For experiment [1], the system named is L. monocytogenes scott A. The experiment in a line: Disc diffusion, zones of inhibition in culture medium. The class given is cell-based, Listeria monocytogenes. As to conditions: J = L. monocytogenes scott A, average of four repetitions. On the procedure: (§1) […]. Select mutants resistant to the antibiotic rifampicin (R+) to eliminate the interference of the native microbial flora of Hibiscus acid and derivatives (Castro-Rosas and Escartín, 2000). Maintain the R+ strains at 4-7° C. on blood-based agar (ABS, Merck®, Germany) with biweekly transfers, activating tripticasein soy broth (CST, Bioxon®, Mexico) with incubation at 35° C./24 h.
(§2) Prepare cultures of each one of the R+ study bacteria in tubes of 13×100 mm containing 3 ml of Tripticasein Soy Broth (TSB) incubating at 35° C. for 24 hours. Subsequently, centrifuge the cultures at 3500 rpm for 20 minutes. Then discard the supernatant and resuspend the cell pack by adding 3 ml of sterile isotonic saline solution (ISS) and agitate in vortex for 10 seconds. Repeat the previous procedure two more times. Subsequently, dilute each culture of the washed strains in a decimal proportion with ISS.
(§3) From the dry fractions (collections) prepare aqueous solutions using a solution of Polysorbate 80:water that was previously prepared in a ratio of 20:80. To this solution of polysorbate 80:water, add each dry fraction or chromatographic collection separately in a 1:9 ratio, in clean jars.
(§4) Separately, place 100 μL of the first dilution of the washed and diluted cultures on boxes of Agar Soya Tripticasa (AST) supplemented with 100 mg/L of the antibiotic rifampin; distribute the inoculum over the entire surface of the agar using the surface extension technique. Place on the inoculated boxes, separately, filter paper discs of a size of 0.5 cm and on the disks place aliquots of 10 μL of the solution of the chromatographic fractions. Perform four repetitions for each treatment. After the aliquots of the fractions or collections are absorbed by the agar, incubate the culture boxes at 35° C. for 24 hours.
For orientation: A growth-free zone around the sample is the usual read-out of agar diffusion tests.

The test system of experiment [2] is E coli O157H7. The description is as above. The conditions noted are these: A = E coli O157H7, average of four repetitions. The class given is cell-based, Escherichia coli. How it is done: as §1, §2, §3, §4
Experiment [3] relates to E. coli enterotoxigenic. The experiment is described as above. The class given is cell-based, Escherichia coli. The conditions noted are these: C = E. coli enterotoxigenic, average of four repetitions. How it is done: as §1, §2, §3, §4
In experiment [4] the test system is E. coli enteropathogenic. The experiment is described as above. The format is cell-based, Escherichia coli. The conditions noted are these: D = E. coli enteropathogenic, average of four repetitions. How it is done: as §1, §2, §3, §4
For experiment [5], the system named is E. coli enteroinvasive. The experiment is described as above. The class given is cell-based, Escherichia coli. The conditions noted are these: B = E. coli enteroinvasive, average of four repetitions. How it is done:
as §1, §2, §3, §4

The subject of experiment [6] is 13 different microorganisms. The experiment in a line: Antimicrobial effect in culture medium, whole panel. The class given is cell-based. As to conditions: against the control; all study microorganisms. How it is done: as §1, §2
From the dry fractions (collections) prepare aqueous solutions using a solution of Polysorbate 80:water that was previously prepared in a ratio of 20:80. To this solution of polysorbate 80:water, add each dry fraction or chromatographic collection separately in a 1:9 ratio, in clean jars. […]

Experiment [7] has as its system Listeria monocytogenes. Briefly: Disc diffusion, zones of inhibition in culture medium. As to conditions: I = Listeria monocytogenes, average of four repetitions. The class given is cell-based. How it is done: as §1, §2, §3, §4
For experiment [8], the system named is Staphylococcus aureus. The description is as above. The format is cell-based. The conditions noted are these: K = Staphylococcus aureus, average of four repetitions. How it is done: as §1, §2, §3, §4
Experiment [9] concerns Shigella sonnei. The description is as above. The class given is cell-based. As to conditions: G = Shigella sonnei, average of four repetitions. How it is done: as §1, §2, §3, §4
In experiment [10] the test system is Salmonella Typhimurium R+. Described as above. The class given is cell-based. The conditions noted are these: E = Salmonella Typhimurium R+ (resistant to 14 antibiotics), average of four repetitions. On the procedure:
as §1, §2, §3, §4

Experiment [11] relates to Pseudomonas aeruginosa. The experiment is described as above. The class given is cell-based. As to conditions: column L, average of four repetitions. On the procedure: as §1, §2, §3, §4
Experiment [12] has as its system V. cholerae O1. The experiment is described as above. As to conditions: M = V. cholerae O1, average of four repetitions. The class given is cell-based. On the procedure: as §1, §2, §3, §4
The subject of experiment [13] is Salmonella choleraesuis. Described as above. The class given is cell-based. The conditions noted are these: column F, average of four repetitions. How it is done: as §1, §2, §3, §4
Experiment [14] deals with Shigella flexneri. The experiment is described as above. The class given is cell-based. The conditions noted are these: H = Shigella flexneri, average of four repetitions. On the procedure: as §1, §2, §3, §4

This note sets out measurements from patent US10849322B2, “Use of hibiscus acid and derivatives thereof as antimicrobials against antibiotic-resistant and non-antibiotic-resistant microorganisms” (UNIVERSIDAD AUTONOMA DEL ESTADO DE HIDALGO, priority 2015, dated 2020).

Turning to `O=C1C[C@](O)(C(=O)O)[C@@H](C(=O)O)O1` [Compound 1, hibiscus acid], the Zones of inhibition in experiment [1] was 10 mm; in experiment [2], 10 mm; in [3], 10 mm; in experiment [4], 11 mm; in experiment [5] it was 12 mm; in experiment [7] it was 10 mm. Moreover, the Zones of inhibition was 10 mm in [8]; 10 mm in [9]; 12 mm in experiment [10]; 10 mm in [11]; 14 mm in experiment [12]; 10 mm in experiment [13]. Moreover, the Zones of inhibition in experiment [14] is given as 10 mm. For the same compound, in experiment [6], the “antimicrobial effect (zone of inhibition, in words)” value is “maximum zone of inhibition”.

In the case of `COC(=O)[C@H]1OC(=O)C[C@]1(O)C(=O)OC` [Compound 3, di-ester methyl of hibiscus acid], the Zones of inhibition in [1], in [2], in experiment [3], in experiment [4], in [5] and in [7] was 8 mm throughout. In addition, the Zones of inhibition was determined as 8 mm in [8]; 8 mm in experiment [9]; 8 mm in [10]; 8 mm in [11]; 10 mm in experiment [12]; 8 mm in experiment [13]. For the same compound, in experiment [14], the Zones of inhibition worked out at 8 mm.

On to `CCOC(=O)[C@@]1(O)CC(=O)O[C@@H]1C(=O)O` [Compound 4, mono ester ethyl of hibiscus acid], for which the Zones of inhibition in [1], in experiment [2], in [3], in [4], in experiment [5] and in experiment [7] was 6 mm in each case. Moreover, the Zones of inhibition in experiment [8] was 6 mm; in experiment [9], 6 mm; in [10], 6 mm; in [11], 6 mm; in experiment [12], 8 mm; in [13], 6 mm. In addition, the Zones of inhibition in experiment [14] is 6 mm.

Turning to `CCOC(=O)C[C@](O)(C(=O)OCC)[C@@H](O)C(=O)OCC` [Compound 6, tri-ethyl ester of hydroxycitric acid], the Zones of inhibition in experiment [1], in experiment [2], in experiment [3], in [4], in experiment [5] and in experiment [7] was 5 mm throughout. The Zones of inhibition came to 5 mm in experiment [8]; 5 mm in experiment [9]; 5 mm in experiment [10]; 5 mm in experiment [11]; 6 mm in [12]; 5 mm in experiment [13]. This compound came in with a Zones of inhibition in [14] of 5 mm. In addition, the “antimicrobial effect (zone of inhibition, in words)” value in experiment [6] is on record as “lowest”.

`CCOC(=O)[C@H]1OC(=O)C[C@]1(O)C(=O)OCC` [Compound 5, di-ester ethyl of hibiscus acid]: the Zones of inhibition in [1], in [2], in [3], in [4], in experiment [5] and in [7] was 6 mm throughout. The Zones of inhibition is 6 mm in experiment [8]; 6 mm in experiment [9]; 6 mm in experiment [10]; 6 mm in experiment [11]; 8 mm in experiment [12]; 6 mm in [13]. In experiment [14], this compound showed a Zones of inhibition of 6 mm.

Consider `COC(=O)[C@@]1(O)CC(=O)O[C@@H]1C(=O)O` [Compound 2, mono ester methyl of hibiscus acid], for which the Zones of inhibition in [1] was determined as 8 mm; in experiment [2], 10 mm; in experiment [3], 10 mm; in [4], 10 mm; in [5] it was 10 mm; in experiment [7], 8 mm. Further, the Zones of inhibition is recorded as 10 mm in [8]; 10 mm in experiment [9]; 10 mm in experiment [10]; 8 mm in experiment [11]; 12 mm in experiment [12]; 10 mm in experiment [13]. In addition, in experiment [14], the Zones of inhibition is given as 10 mm.
